According to publication PMC6917776, “Discovery of a chemical probe for PRDM9” (Nature Communications, 2019):

Tests used:
Assay in all cases: CelltiterGlo viability cell assay
Assay type in all cases: cell-based
MDA-MB-436 = conditions: up to 30 μM; days 3 and 6; matched control line
Procedure, shortened: (§1)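 Mycoplasma-negative lines were plated at line-specific densities and treated with a compound titration (0.01–30 μM); CelltiterGlo signal at day 3 or 6 was referenced to DMSO control.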

HCC1143 = conditions: up to 30 μM; days 3 and 6; matched control line
Procedure, shortened: as §1

HCC1806 = conditions: up to 30 μM; days 3 and 6; Prdm9 expressing line
Procedure, shortened: as §1

Measured: Effect on proliferation (in words)

COc1cc(OC)cc(-c2noc(N3CCN(C)C4(CCN(c5ccnc(C)c5)CC4)C3)n2)c1 [MRK-740]
did not have any significant effect: MDA-MB-436 | HCC1143 | HCC1806
